Entries after “also recorded” stand apart in the source; their conditions may differ.
Key:
[1] = tested on: STZ-induced diabetic ICR mice; assay: Blood glucose in STZ-induced diabetic ICR mice, long-term AGS treatment (5 months) with or without insulin; assay type: in vivo, mouse; design: Blood Glucose At 101 day / Blood Glucose At 111 day: unit: mg/dL; details: for % reduction in blood glucose level / Blood glucose level Average: after 12 hours fast, day 142; for Blood glucose level Average: in mg/dL (unit assumed)
Description: [0182]7 week-old female ICR mice were intra-peritoneally injected with STZ (40 mg\Kg) for 5 consecutive days. Non-diabetic mice received citrate buffer (pH 4.3, cold), which served as the vehicle controls for this study. AGS-500 (6 mg\Kg) was then administered subcutaneously every 2 days, for 5 months, on the first day after STZ administration. A further control group, where DMSO was administered in accordance with this regimen, was included. Mice were divided into the following 6 groups (10 mice per group except STZ only-5 mice): • STZ only • STZ+DMSO • Citrate+DMSO 1% every day • STZ+AGS-499 (6 mg/kg) injected every day S.C • STZ+AGS-500 (6 mg/kg) injected every day S.C • STZ+AGS-500 (6 mg/kg) injected every other day S.C Mice were weighed and blood glucose levels were measured using a free style glucometer. Food consumption was also measured 24 hours prior to STZ injection. The concentration of STZ to be injected was calculated. STZ at 40 mg/kg was injected ip for 5 consecutive days. AGS treatment was administered one day following the last STZ injection. The establishment of diabetes was validated by the assessment of blood glucose levels performed every 3 days (at the beginning) and once a week after 59 days from the initiation of the experiment. Blood glucose levels over 200 mg/dl (measured 3 consecutive times) indicated a diabetic state. At 80 days from the initiation of the experiments each group was divided to 2 subgroups which received either insulin (4 units/kg) or acetic acid (0.015%) both in HEPES buffer (pH 7.45) injected every 48 hours. Mice were sacrificed after 5 months from the initiation of the experiments. Blood glucose levels were monitored every 3 days. Ten weeks after the beginning of this study, each group was divided into 2 sub-groups, one of each also received insulin (4 U\Kg) every 2 days, except for the non-diabetic sub-groups. Acetic acid (1%) served as the vehicle control.

[2] = tested on: STZ-induced diabetic ICR mice; assay: Glucose Tolerance Test (GTT) in STZ diabetic mice after 2 and 5 months; assay type: in vivo, mouse; details: for Improvement (fold): GTT after 2 months; for Fold of Improvement: GTT after 5 months; for Time needed for the Pancreas to cope glucose load after 5 months / Time needed for the Pancreas to cope with glucose load after 2 months: GTT
Description: Glucose Tolerance Test: Animals were fasted for 12 hr with free access to water. Blood-glucose levels after fast were measured and then the animals received an i.p. injection of glucose (1.5 g/kg). Blood samples were taken at several intervals (for the duration of 2 hr), when glucose levels above 200 mg/dl at 2 hr confirmed a diagnosis of diabetes.
[…] Mice were subjected to 12 hours fast (with water) weighed, blood glucose level was measured and Glucose at 1.5 gr/kg in no more than 100 μl was injected IP. Blood glucose levels were measured at 10, 20, 30, 60, 90 and 120 min after glucose injection. glucose tolerance test.

pancreatic β-cells = assay: Insulin immuno-histochemical and immuno-fluorescence staining of pancreas, β-cell mass in STZ-injected rats; assay type: in vivo, rat; details: FIG. 5A, 5B, 5D
Description: Rats were treated as described in Example 1, pancreata were removed fixed in 4% formalin, and embedded in paraffin for immuno-histochemical and immuno-fluorescence staining using a specific anti-insulin antibody and serial histopathologic sections were prepared. […] Brown staining in FIG. 5A indicates insulin staining positivity by immunohistochemistry, and red staining (FIGS. 5B and 5C) indicates insulin staining positivity by immunofluorescence, blue cellular staining was effected with Dapi). The Cell density and density of insulin staining per area was measured using “Image J” software (FIGS. 5D and 5E). The results are presented as mean±S.E.; n=4. ***p<0.005.

How did the “blood glucose levels with time” value ([1]; AGS 500 every 48 hrs, without insulin) turn out when `CC(c1cc(Br)c(O)c(Br)c1)(c1cc(Br)c(O)c(Br)c1)c1cc(Br)c(O)c(Br)c1` [AGS-500, 1,1,1-tris (4-hydroxy-3,5-dibromo-phenyl)-ethane] was run?
The value was “best effect in reducing blood glucose levels with time”.

And the “circulating glucose levels, AGS-500 alone versus combined AGS-500 and insulin” value ([1]; FIG. 2F)?
Its value is “greatest therapeutic effect”.

And the “% reduction in blood glucose level” value ([1]; 6 mg/kg s.c. daily)?
Its value is 20%.

What about the “Blood glucose level Average” value ([1]; 6 mg/kg s.c. daily) of the same compound?
Its value is 317.4.

And the “% reduction in blood glucose level” value ([1]; 6 mg/kg s.c. every 48 hrs)?
Its value is 32%.

What about the “Blood glucose level Average” value ([1]; 6 mg/kg s.c. every 48 hrs) of the same compound?
The value was 270.

And the “% reduction In blood Glucose 101 day” value ([1]; no insulin, daily)?
Its value is 15%.

And the “Blood Glucose At 101 day” value ([1]; no insulin, daily)?
Its value is 600.

And the “Blood Glucose At 111 day” value ([1]; no insulin, daily)?
Its value is 450.

What about the “reduction In blood Glucose 111 day” value ([1]; no insulin, daily) of the same compound?
Its value is 25%.

What about the “% reduction In blood Glucose 101 day” value ([1]; no insulin, every 48 hrs) of the same compound?
The value was 43%.

What about the “Blood Glucose At 101 day” value ([1]; no insulin, every 48 hrs) of the same compound?
Its value is 400.

And the “Blood Glucose At 111 day” value ([1]; no insulin, every 48 hrs)?
The value was 390.

What about the “reduction In blood Glucose 111 day” value ([1]; no insulin, every 48 hrs) of the same compound?
The value was 35%.

What about the “Blood Glucose At 101 day” value ([1]; with insulin (4 units/kg every 48 hours), AGS daily) of the same compound?
Its value is 460.

And the “% reduction In blood Glucose 101 day” value ([1]; with insulin, AGS daily)?
Its value is 34%.

And the “Blood Glucose At 111 day” value ([1]; with insulin, AGS daily)?
The value was 400.

What about the “reduction In blood Glucose 111 day” value ([1]; with insulin, AGS daily) of the same compound?
The value was 34%.

What about the “% reduction In blood Glucose 101 day” value ([1]; with insulin, AGS every 48 hrs) of the same compound?
Its value is 32%.

And the “Blood Glucose At 101 day” value ([1]; with insulin, AGS every 48 hrs)?
The value was 480.

What about the “Blood Glucose At 111 day” value ([1]; with insulin, AGS every 48 hrs) of the same compound?
The value was 400.

And the “reduction In blood Glucose 111 day” value ([1]; with insulin, AGS every 48 hrs)?
The value was 34%.

What about the “Improvement (fold)” value ([2]; daily) of the same compound?
Its value is 1.5 fold.

What about the “Improvement (fold)” value ([2]; every 48 hrs) of the same compound?
The value was 3 fold.

And the “Fold of Improvement” value ([2]; daily)?
The value was 3 fold.

What about the “Fold of Improvement” value ([2]; every 48 hrs) of the same compound?
The value was “normal”.

What about the “Time needed for the Pancreas to cope glucose load after 5 months” value ([2]; daily) of the same compound?
The value was 30 min.

And the “Time needed for the Pancreas to cope with glucose load after 2 months” value ([2]; daily)?
Its value is 60 min.

What about the “Time needed for the Pancreas to cope glucose load after 5 months” value ([2]; every 48 hrs) of the same compound?
The value was 20 min.

What about the “Time needed for the Pancreas to cope with glucose load after 2 months” value ([2]; every 48 hrs) of the same compound?
The value was 30 min.

And the “GTT test performed after 5 months” value ([2]; treatment every 48 hours, FIG. 4)?
Its value is “significant improvement in the GTT test”.

And the “β-cell mass in the pancreas of STZ-injected rats” value (pancreatic β-cells)?
The value was “significantly larger β-cell mass; also recorded: preserved β-cell Mass”.

From US10111880B2, “Compounds for the treatment of diabetes and disease complications arising from same” (BEN-GURION UNIVERSITY OF THE NEGEV RESEARCH AND DEVELOPMENT …, priority 2013, dated 2018)
